From patent publication US20090306219A1, “TOPICAL USE OF PLANT EXTRACT FOR SKIN DETOXIFICATION” (priority 2008, published 2009)

Legend:
glyoxalase I = assay: Quantification of Glyoxalase I via immunoassay (western blot) in keratinocyte culture; format: cell-based; conditions: 0.0005%, keratinocyte culture treated 24 hrs
Description: The blots were then transferred and probed with a fluorescent anti-body to glyoxalse I, purchased from Santa Cruz Biotechnology. Absorbance was measured and graphed.

glutathione = assay: ELISA quantification of glutathione in keratinocyte culture; format: cell-based; conditions: 0.0005%, Treatment
Description: In simple terms, in ELISA an unknown amount of antigen is affixed to a surface, and then a specific antibody is washed over the surface so that it can bind to the antigen. […] This antibody is linked to an enzyme, and in the final step a substance is added that the enzyme can convert to some detectable signal. Thus in the case of fluorescence ELISA, when light is shone upon the sample, any antigen/antibody complexes will fluoresce so that the amount of antigen in the sample can be measured.
The ELISA kit used in this experiment was purchased from Cayman Chemicals. The experiment was performed as per the manufacturer's directions.

`C=CCSSSCC=C` [Diallyl Trisulfide] was tested, and the “Inv OD 1” value (glyoxalase I; replicate 1) was 91.6, the OD1 (glyoxalase I; replicate 1) was 125.205 and the “Inv OD 2” value (glyoxalase I; replicate 2) was 90.7. The “OD 2” value (glyoxalase I; replicate 2) was 126.011, the “Inv OD 3” value (glyoxalase I; replicate 3) was 71.1 and the “OD 3” value (glyoxalase I; replicate 3) was 145.641. For the same molecule, the “Inv OD 4” value (glyoxalase I; replicate 4) was 129.4, the OD4 (glyoxalase I; replicate 4) was 87.372 and the “Inv OD 5” value (glyoxalase I; replicate 5) was 93.0. For the same molecule, the “OD 5” value (glyoxalase I; replicate 5) was 123.78, the “Inv OD 6” value (glyoxalase I; replicate 6) was 86.2 and the “OD 6” value (glyoxalase I; replicate 6) was 130.525. For the same molecule, the “Inv OD Mean” value (glyoxalase I; significantly different from Untreated (mean 66.5)) was 93.7, the “Glut Mean” value (glutathione; Untreated mean 19) was 21 and the “Glut 1” value (glutathione; replicate 1, Untreated 18) was 20. For the same molecule, the “abs 1” value (glutathione; replicate 1 absorbance) was 0.033, the “Glut 2” value (glutathione; replicate 2, Untreated 20) was 22 and the “abs 2” value (glutathione; replicate 2 absorbance) was 0.036. For the same molecule, the “Glut 3” value (glutathione; replicate 3, Untreated 20) was 20 and the “abs 3” value (glutathione; replicate 3 absorbance) was 0.034.
